Tests used:
[1] = system: HEK-293 cells; experiment: cell growth inhibition, HEK-293, Resazurin, 1% FBS; type: cell-based, Human; details: 48 hr of drug exposure
Method: Human prostate adenocarcinoma (PC-3; CRL-1435), multiple myeloma (RPMI 8226; CCL-155) and embryonic kidney (HEK-293; CRL-1573) cells were all purchased from ATCC and maintained in appropriate culture media. The cells were cultured in an incubator at 37° C. in 5% CO2 and 95% humidified air.
For cell growth inhibition assays, PC-3 and HEK-293 cells were seeded at 5×10^3 and 1.5×10^3 cells/well respectively in 90 μl media containing 1% (v/v) FBS into 96 well (Corning; 3904) black-walled, clear-bottom tissue culture plates and the plates were incubated overnight to allow cells to establish and enter log phase growth. RPMI 8226 cells were seeded at 2×10^4 cells/well respectively in 90 μl media containing 1% (v/v) FBS into 96 well plates on the day of the assay. 4 mg/ml stock solutions of the compounds were prepared in 100% DMSO and stored at −20° C. The compounds were serially diluted and added in triplicate to the test wells. LT-1-85 was tested at concentrations ranging from 27 μM to 8.6 nM. Concentrations ranging from 30 μM to 9.7 nM were tested for CC-3-13P. Formula (IIB-A1) was tested at concentrations ranging from 26 μM to 8.4 nM. The plates were returned to the incubator for 48 hours. The final concentration of DMSO was 0.25% in all samples.
Following 48 hours of drug exposure, 10 μl of 0.2 mg/ml Resazurin in Mg2+, Ca2+ free phosphate buffered saline was added to each well and the plates were returned to the incubator for 3-6 hours. Since living cells metabolize Resazurin, the fluorescence of the reduction product of Resazurin was measured using a Fusion microplate fluorometer (Packard Bioscience) with λex=535 nm and λem=590 nm filters. Resazurin dye in medium without cells was used to determine the background, which was subtracted from the data for all experimental wells. […] Where the maximum inhibition of cell growth was less than 50%, an EC50 value was not determined. The data in Table 25 summarize the growth inhibitory effects of LT-1-85, CC-3-13P and formula (IIB-A1) against HEK-293, PC-3 and RPMI 8226 cells. […]

[2] = system: NO; type: cell-based, Murine; details: 10 μM
Method: After 2 days in culture the medium was replaced by phenol-red free RPMI 1640 medium supplemented with 0.5 mM arginine and 2% FCS followed by the addition of the indicated stimuli. TTL3, TTL1, LT-1-45, LT-1-85 and formula (IIB-A1) were added to cells at the final concentration of 10 μM for 15 min. DMSO was used as a control. Cells were then stimulated with 200 ng/ml of LPS and 20 units/ml of IFNγ for 18 hr. NO release was measured as the accumulation of nitrite and nitrate in the incubation medium (phenol-red free). Nitrate was reduced to nitrite with nitrate reductase and was determined spectrophotometrically with Griess reagent. To determine the protein levels of COX-2 and NOS-2, cells (1.5×10^6) were washed with PBS and collected by centrifugation. Cell pellets were homogenized with 100 μl of buffer A (10 mM Hepes; pH 7.9, 1 mM EDTA, 1 mM EGTA, 100 mM KCl, 1 mM dithiothreitol, 0.5 mM phenylmethylsulfonyl fluoride, 2 μg/ml aprotinin, 10 μg/ml leupeptin, 2 μg/ml Nα-p-tosyl-L-lysine chloromethyl ketone, 5 mM NaF, 1 mM Na3VO4, 10 mM Na2MoO4). After 10 min at 4° C., Nonidet P-40 was added to reach a 0.5% concentration. The tubes were gently vortexed for 15 sec and centrifuged at 8,000×g for 15 min. The supernatants were stored at −80° C. until use. Protein content was assayed using the Bio-Rad protein reagent. Protein extracts were separated by 10% SDS-polyacrylamide gel electrophoresis. The gels were blotted onto a Hybond P membrane and then incubated with appropriate primary antibodies: anti-NOS-2 or anti-cyclooxygenase-2. Antibody against β-actin was used as a control to confirm the loading of each sample. […] Different exposure times of the films were used to ensure that bands were not saturated. Quantification of the films was performed by laser densitometry.

[3] = target: NIK (Homo sapiens, UniProt Q99558); type: biochemical; details: for inhibition of the NIK kinase activity: transfected cells stimulated with LPS/IFNγ in the presence of compound
Method: The tubes were gently vortexed for 15 s and centrifuged at 8000×g for 15 min. The supernatant (1 ml) was pre-cleared, and NIK was immunoprecipitated with 1 μg of anti-myc Ab. After extensive washing of the immunoprecipitate with buffer A, the pellet was resuspended in kinase buffer (modified buffer A containing 0.1 mM EDTA, 5 mM MgCl2 and 10 nM okadaic acid). Kinase activity was assayed in 100 μl of kinase buffer containing 100 ng of immunoprecipitate, 50 μM [γ-^32P]ATP (0.5 μCi) and 100 ng of MBP as substrate.

[4] = system: THP-1 cells; experiment: resazurin viability assay in THP-1 cells; type: cell-based, human; details: * mild, ** marked reduction in viability, in % (unit assumed)
Method: The ability to inhibit TNF-α production was analyzed in THP-1 cells, a human acute monocytic leukemia cell line that is widely used to assess monocyte functions. In order to induce maturation, THP-1 cells were plated at 1×10^6 cells/ml and pretreated with 5 nM PMA for two days. Differentiated THP-1 cells were pretreated with various concentrations of TTL3 or its analogs for 1 hour, followed by a 4 hour incubation with 1 μg of LPS (Sigma, St. Louse, Mo.). The p38 inhibitor (SB 203580; Sigma, St. Louis, Mo.) was used as a positive control. Supernatants were collected and stored at −80° C. until assayed for TNF-α activity. A resazurin assay was performed for each analog to evaluate the effects on cell metabolism and viability.
A preparation of the dye resazurin, commercially-available as alamarBlue™ (Biosource International Inc., 820 Flynn Road, Camarillo, Calif.), was used for the cytotoxicity assays described herein. The assays and experiments described herein were conducted in substantially the same manner as described in the scientific literature, for example, in Magnani, E. and Bettini, E., “Resazurin detection of energy metabolism changes in serum-starved PC12 cells and of neuroprotective agent effect,” Brain Res Protoc., 2000 July; 5(3):266-72 and in Nociari M. M., Shalev A., Benias P., and Russo C. J, “A novel one-step, highly sensitive fluorometric assay to evaluate cell-mediated cytotoxicity,” Immunol. Methods 213, 157-167 (1998), see also U.S. Pat. No. 5,501,959, entitled “Antibiotic and Cytotoxic Drug Susceptibility Assays using Resazurin and Poising Agents,” the entire specification of which is incorporated herein by reference.

Chain of NIK (Q99558 whole entry): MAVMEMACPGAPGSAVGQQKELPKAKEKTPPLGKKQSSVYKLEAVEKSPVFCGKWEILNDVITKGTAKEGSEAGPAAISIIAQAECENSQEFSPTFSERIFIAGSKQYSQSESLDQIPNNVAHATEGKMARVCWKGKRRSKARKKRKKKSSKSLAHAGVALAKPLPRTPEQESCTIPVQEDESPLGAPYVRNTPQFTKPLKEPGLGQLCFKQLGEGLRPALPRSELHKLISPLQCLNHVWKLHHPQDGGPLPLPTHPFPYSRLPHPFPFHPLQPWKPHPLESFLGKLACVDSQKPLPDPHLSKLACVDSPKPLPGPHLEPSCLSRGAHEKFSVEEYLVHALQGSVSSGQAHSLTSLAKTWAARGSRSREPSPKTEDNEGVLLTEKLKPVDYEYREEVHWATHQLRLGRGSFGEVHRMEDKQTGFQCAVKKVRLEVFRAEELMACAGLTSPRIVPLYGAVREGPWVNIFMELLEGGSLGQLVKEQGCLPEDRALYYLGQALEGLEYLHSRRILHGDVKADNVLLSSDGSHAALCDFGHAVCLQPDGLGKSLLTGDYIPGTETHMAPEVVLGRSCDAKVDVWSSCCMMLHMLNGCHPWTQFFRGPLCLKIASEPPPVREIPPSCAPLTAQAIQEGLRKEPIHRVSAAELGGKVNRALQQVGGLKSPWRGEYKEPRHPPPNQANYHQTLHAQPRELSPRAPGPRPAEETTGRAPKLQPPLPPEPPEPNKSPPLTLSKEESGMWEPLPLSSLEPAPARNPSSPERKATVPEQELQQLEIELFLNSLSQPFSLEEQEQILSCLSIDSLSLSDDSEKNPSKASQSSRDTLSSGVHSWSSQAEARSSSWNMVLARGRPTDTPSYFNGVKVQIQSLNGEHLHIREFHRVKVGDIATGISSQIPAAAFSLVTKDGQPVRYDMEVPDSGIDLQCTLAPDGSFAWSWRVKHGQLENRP

## C=C[C@@]1(C)CCC=C2[C@H]1CC[C@@H]1[C@](C)(C(=O)NC3CCCCC3)CCC[C@@]21C [Formula (IIB-A1), N-Cyclohexylamide Derivative of TTL]
[1]; Homo sapiens, HEK293, 48 h
  EC50: > 26 µM
[2]
  synthesis of NO induced by LPS/IFNγ: also reduced
[3]
  inhibition of the NIK kinase activity: 70%

## C=C[C@@]1(C)CCC=C2[C@H]1CC[C@@H]1[C@](C)(C(=O)N3CCOCC3)CCC[C@@]21C [LT-1-85]
[4]; 100 ng/ml
  Effect on Cell Viability: 100
[4]; 1 ug/ml
  Effect on Cell Viability: 100
[4]; 10 ug/ml
  Effect on Cell Viability: 80*
[1]
  EC50: 22 µM
[1]; Homo sapiens, HEK293, 48 h
  EC50: 23 µM
[2]
  synthesis of NO induced by LPS/IFNγ: also reduced

## C=C[C@@]1(C)CCC=C2[C@H]1CC[C@@H]1[C@](C)(C(=O)OC)CCC[C@@]21C [TTL3]
[4]; 100 ng/ml
  Effect on Cell Viability: 100
[4]; 1 ug/ml
  Effect on Cell Viability: 100
[4]; 10 ug/ml
  Effect on Cell Viability: 100
[2]
  synthesis of NO induced by LPS/IFNγ: also reduced
[3]; 1 μM directly added to the in vitro NIK kinase assay
  inhibition of the kinase activity of NIK: 48%
[3]
  inhibition of the NIK kinase activity: 70%

Source: patent US7893299B2, “Interleukin-1 and tumor necrosis factor-αmodulators; syntheses of such modulators and methods of using such modulators” (Nereus Pharmaceuticals, Inc., priority 2005, dated 2011)
